Biological target: T1, CDK2 (Homo sapiens, UniProt P24941)
T1 construct: purchased Reaction Biology Corp. (Kinase HotSpot service)
Assay: CDK2 kinase inhibition (Reaction Biology HotSpot)
Assay type: biochemical
Conditions: single dose of 10 µM, read-out: % Enzyme Inhibitory Activity
Procedure: The in vitro CDK2 kinase inhibition assay was carried out by Reaction Biology Corp. (Reaction Biology Corp., Chester, PA, USA) Kinase HotSpotSM service (http://www.reactionbiology.com).
5. CDK2 kinase inhibitory activity
Reaction Biology Corp. Kinase HotSpotSM service
(http://www.reactionbiology.com) was used for screening of tested compounds. CDK2 Kinase inhibitory activity was assessed by the HotSpot assay platform, which contained specific kinase/substrate pairs along with required cofactors. Base reaction buffer:
0.1 mM Na3VO4, 2 mM DTT, 1% DMSO. Testing compounds were dissolved in 100% DMSO to specific concentration. The serial dilution was conducted by Integra Viaflo Assist in DMSO. The reaction mixture containing the examined compound and 33P-ATP was incubated at room temperature for 2 h and radioactivity was detected by filter-binding method. Kinase activity data were expressed as the percent remaining kinase activity in test samples compared to vehicle (dimethyl sulfoxide) reactions.

Row | SMILES | inhibition at 10 µM
1 | C=CCN1C(=O)C(=NNC(=O)Cc2c[nH]c3ccccc23)c2ccccc21 [Compound 9a, N′-(1-Allyl-2-oxoindolin-3-ylidene)-2-(1H-indol-3-yl)acetohydrazide] | 23%
2 | O=C(Cc1c[nH]c2ccccc12)NN=C1C(=O)Nc2ccc([N+](=O)[O-])cc21 [Compound 7e, 2-(1H-Indol-3-yl)-N′-(5-nitro-2-oxoindolin-3-ylidene)acetohydrazide] | 16%
